The values below come from patent publication US9724362B2, “Pharmaceutical compositions comprising nanoparticles and a resuspending material” (Bend Research, Inc., priority 2007, dated 2017).

In brackets after ≈: the same amount, converted by molar mass. Where two headings read alike, the source gives them in different places. Some results are limits rather than exact numbers.

Series [1] in a line: Drug solubility. In kind it is physicochemical.

As for `Cc1ccc(-c2cc(C(F)(F)F)nn2-c2ccc(S(N)(=O)=O)cc2)cc1` [Drug 1, 4-[5-(4-methylphenyl)-3-(trifluoromethyl)-1H-pyrazol-1-yl]benzenesulfonamide], the solubility (in general, how much of the substance goes into solution per volume) in series [1] (MFD solution, read-out: solubility in MFD solution) is roughly 40 µg/mL (≈ 105 µM).
Regarding `CCOC(=O)N1c2ccc(C(F)(F)F)cc2[C@@H](N(Cc2cc(C(F)(F)F)cc(C(F)(F)F)c2)C(=O)OC)C[C@H]1CC` [Drug 2, [2R,4S]4-[(3,5-bis-trifluoromethyl-benzyl)-methoxycarbonyl-amino]-2-ethyl-6-trifluoromethyl-3,4-dihydro-2H-quinoline-1-carboxylic acid ethyl ester], in series [1] (water, read-out: solubility in water), the solubility was less than 0.1 µg/mL.
Regarding Ethylcellulose, the “amount of polymer soluble at pH 6.5” value was “less than 0.001 mg/mL”.
